From PMC9174238, “pH- and concentration-dependent supramolecular assembly of a fungal defensin plectasin variant into helical non-amyloid fibrils” (Nature Communications, 2022)
Blank lines part the entries; values can stand above or below the molecule they belong to. Where a SMILES comes first, the peptide text is derived from it. Bridges are numbered along the chain shown (N, C = ends).

How the values were obtained:
[1] = Thioflavin T fluorescence measurements; assay type: physicochemical; details: Gly-HCl pH 2.5; dissolved; c=2 mg/mL; excitation 440±10 nm, emission 490±10 nm
Description: Plectasin stock solutions were dialyzed against 10 mM acetate buffer pH 5.5. A final concentration of 2 mg/mL (450 µM) was obtained by dilution with the dialysis buffer and ThT was added to a final concentration of 20 µM. The fluorescence was monitored after each cycle at 490 ± 10 nm with excitation at 440 ± 10 nm with a gain of 1000 using FLOUstar Omega multi-mode microplate reader (BMG Labtech). Omega software was used to control the plate reader and export the data. Insulin was fibrillated at 40 °C with agitation (600 rpm) for 150 s every 5 min[79]. Additionally, the fluorescence of a sample containing insulin fibrils at a protein concentration of 2 mg/mL was compared to freshly dialyzed plectasin in 10 mM acetate buffer pH 3.5 and pH 5.5 and a sample diluted into 10 mM acetate buffer pH 5.5 and 10 mM phosphate buffer pH 6.5, equilibrated for 12 h was compared (end-point measurement).

[2] = pKa by 2D 1H-1H TOCSY NMR pH titration; assay type: physicochemical; details: imidazole ring protons, 50 mM phosphate buffer, 298 K
Description: 2D ^1H–^1H TOCSY NMR spectra were acquired by sampling the FID for 117 and 14.5 milliseconds by acquiring 1024 × 128 complex data points in the direct and indirect dimensions, respectively. For these ^1H–^1H TOCSY NMR experiments, 16 transients were acquired with an inter-scan relaxation delay of 1 second. All NMR spectra were processed with ample zero filling in all spectral dimensions in Bruker Topspin 3.5 pl7 software and integrated into the same software. Data were plotted in proFit 7 (Quantum Soft). Titration curves were fitted to the Henderson-Hasselbalch equation in proFit 7 as δobs=(δA+10^pKa−pH*δHA)/(1+10^pKa−pH), where δobs is the measured chemical shift, δA is the chemical shift of the deprotonated form and δHA is the chemical shift of the protonated form. The pH of the sample was determined after the measurement.

female NMRI mice = details: single intravenous bolus 50 mg/kg, observed 4 days, previously performed, ref ICAAC 2006 poster F2-1166; cited from earlier work
Description: page 11: homeostatic conditions.

[3] = target: plectasin variant D9S Q14K V36L (PPI42); test: dynamic light scattering; pH series, phosphate buffer above pH 6, 2 mg/mL (450 µM), 25 °C
[4] = cited from earlier work
Description: The structure of plectasin is stabilized by three disulfide bridges (C4-C30; C15-C37; C19-C39), which is typical for this type of defensins and leads to high confor ...

His18 (position 18, …) = test: NMR; details: 298 K; not stated (50 mM buffer; no added salt mentioned); 50 mM phosphate according to the Fig. 6b caption. Methods: 50 mM phosphate or 50 mM acetate, with the stock dialysed against 10 mM acetate pH 3.5 and diluted into the final buffer.; Folded, disulfide-intact soluble monomer at 250 µM total protein; fibrils forming at higher pH are NMR-invisible
His16 (position 16, …) = test: NMR; details: 298 K; not stated (50 mM buffer; no added salt mentioned); 50 mM phosphate according to the Fig. 6b caption. Methods: 50 mM phosphate or 50 mM acetate, with the stock dialysed against 10 mM acetate pH 3.5 and diluted into the final buffer.; Folded, disulfide-intact soluble monomer at 250 µM total protein; fibrils forming at higher pH are NMR-invisible

Molecule: Insulin: positive control known to form amyloid fibrils upon shaking at 40 °C
Thioflavin T fluorescence (490 nm), end-point [1]: 13428.8

Molecule: CC[C@H](C)[C@@H]1NC(=O)[C@H](CO)NC(=O)[C@H](CCCCN)NC(=O)[C@@H]2CSSC[C@@H](C(=O)N[C@@H](Cc3ccc(O)cc3)C(=O)O)NC(=O)[C@H](CCCCN)NC(=O)[C@@H]3CSSC[C@H](NC(=O)[C@H](CCCCN)NC(=O)[C@H](CCSC)NC(=O)[C@H](CC(=O)O)NC(=O)[C@H](CC(=O)O)NC(=O)[C@H](CCC(=O)O)NC(=O)[C@H](CO)NC(=O)[C@H](Cc4c[nH]c5ccccc45)NC(=O)[C@@H]4CCCN4C(=O)CNC(=O)[C@H](CC(N)=O)NC(=O)[C@@H](NC(=O)CNC(=O)[C@H](Cc4ccccc4)NC(=O)CN)CSSC[C@H](NC(=O)[C@H](Cc4ccc(O)cc4)NC(=O)CNC(=O)CNC(=O)[C@H](CCCCN)NC(=O)[C@H](Cc4ccc(O)cc4)NC(=O)CNC(=O)[C@H](CCCCN)NC1=O)C(=O)N[C@@H](C)C(=O)N[C@@H](CCCCN)C(=O)NCC(=O)NCC(=O)N[C@@H](Cc1ccccc1)C(=O)N[C@@H](CC(C)C)C(=O)N3)C(=O)N[C@@H](Cc1c[nH]cn1)C(=O)N[C@@H](CC(N)=O)C(=O)N[C@@H](Cc1c[nH]cn1)C(=O)N2 [PPI42] (H-GFGCNGPWSEDDMKCHNHCKSIKGYKGGYCAKGGFLCKCY-OH; disulfide 4-30, 15-37, 19-39)
pKa for (H16) [2]: 4.4
pKa for (H18) [2]: 6.4
Maximum Tolerated Dose (MTD) (female NMRI mice): > 50 mg/kg
No Observed Adverse Effect Level (NOAEL) (female NMRI mice): > 50 mg/kg

fraction of medium-sized oligomers and fibrils (% mass) [3]: < 2.5 % mass
Molecule: plectasin variant D9S Q14K V36L (PPI42) (peptide)

Molecule: CC[C@H](C)[C@@H]1NC(=O)[C@H](CO)NC(=O)[C@H](CCCCN)NC(=O)[C@@H]2CSSC[C@@H](C(=O)N[C@@H](Cc3ccc(O)cc3)C(=O)O)NC(=O)[C@H](CCCCN)NC(=O)[C@@H]3CSSC[C@H](NC(=O)[C@H](CCC(N)=O)NC(=O)[C@H](CCSC)NC(=O)[C@H](CC(=O)O)NC(=O)[C@H](CC(=O)O)NC(=O)[C@H](CCC(=O)O)NC(=O)[C@H](CC(=O)O)NC(=O)[C@H](Cc4c[nH]c5ccccc45)NC(=O)[C@@H]4CCCN4C(=O)CNC(=O)[C@H](CC(N)=O)NC(=O)[C@@H](NC(=O)CNC(=O)[C@H](Cc4ccccc4)NC(=O)CN)CSSC[C@H](NC(=O)[C@H](Cc4ccc(O)cc4)NC(=O)CNC(=O)CNC(=O)[C@H](CCCCN)NC(=O)[C@H](Cc4ccc(O)cc4)NC(=O)CNC(=O)[C@H](CCCCN)NC1=O)C(=O)N[C@@H](C)C(=O)N[C@@H](CCCCN)C(=O)NCC(=O)NCC(=O)N[C@@H](Cc1ccccc1)C(=O)N[C@@H](C(C)C)C(=O)N3)C(=O)N[C@@H](Cc1c[nH]cn1)C(=O)N[C@@H](CC(N)=O)C(=O)N[C@@H](Cc1c[nH]cn1)C(=O)N2 [plectasin wildtype]
in vivo half-life [4]: long in vivo half-life
serum stability [4]: high serum stability
toxicity [4]: low toxicity

Molecule: GFGCNGPWSEDDMKCHNHCKSIKGYKGGYCAKGGFLCKCY
pKa (His18 (position 18, …)): around 6.4
pKa (His16 (position 16, …)): around 4.4
